Literature values as cited in patent publication US20210121408A1, “Methods of Administering Cannabinoid to People Diagnosed With HIV” (priority 2019, published 2021).

In the case of CCCCCc1cc(O)c2c(c1)OC(C)(C)[C@@H]1CCC(C)=C[C@@H]21 [THC, delta-9-tetrahydrocannabinol], the “solubility in ethanol, acetone, chloroform and light petroleum” value (ethanol, acetone, chloroform and light petroleum) is listed as “soluble” and the solubility in water (water) is listed as “insoluble”.
